Reference: ChEMBL document CHEMBL1201862, “PubChem BioAssay data set” (2004)
Where a name gives a salt, the structure may show the parent alone.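 Compound exposure: 48 hours, 5 concentrations, 96-well plates. GI50 = concentration required for 50% inhibition of growth.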 Calls of active or inactive are those of the source. Cut-off read from the data, not from the text of the source: active = GI50 up to about 1.1 µM and inactive = higher.

Key:
Assay in all cases: DTP human tumour cell line panel, 48 h
SF-268 = tested on: SF-268
OVCAR-8 = tested on: OVCAR-8
UACC-257 = tested on: UACC-257
NCI-H226 = tested on: NCI-H226
SNB-19 = tested on: SNB-19
BT-549 = tested on: BT-549
HCC 2998 = tested on: HCC 2998
SN12C = tested on: SN12C
HCT-15 = tested on: HCT-15
EKVX = tested on: EKVX
OVCAR-4 = tested on: OVCAR-4
NCI-H23 = tested on: NCI-H23
CAKI-1 = tested on: CAKI-1
ACHN = tested on: ACHN
MDA-MB-435 = tested on: MDA-MB-435
SK-MEL-28 = tested on: SK-MEL-28
U-251 = tested on: U-251
TK-10 = tested on: TK-10
KM12 = tested on: KM12
UO-31 = tested on: UO-31
MDA-N = tested on: MDA-N
NCI/ADR-RES = tested on: NCI/ADR-RES
HOP-92 = tested on: HOP-92
UACC-62 = tested on: UACC-62
SR = tested on: SR
SNB-75 = tested on: SNB-75
MOLT-4 = tested on: MOLT-4
HL-60 = tested on: HL-60
A498 = tested on: A498
CCRF-CEM = tested on: CCRF-CEM
NCI-H460 = tested on: NCI-H460
MDA-MB-231 = tested on: MDA-MB-231
RPMI-8226 = tested on: RPMI-8226
NCI-H522 = tested on: NCI-H522
SK-MEL-5 = tested on: SK-MEL-5
SK-MEL-2 = tested on: SK-MEL-2
PC-3 = tested on: PC-3
COLO 205 = tested on: COLO 205
IGROV-1 = tested on: IGROV-1
Malme-3M = tested on: Malme-3M
M14 = tested on: M14
OVCAR-3 = tested on: OVCAR-3
DU-145 = tested on: DU-145
K562 = tested on: K562
HT-29 = tested on: HT-29
HOP-62 = tested on: HOP-62
A549 = tested on: A549
SF-295 = tested on: SF-295
SW-620 = tested on: SW-620
MCF7 = tested on: MCF7
HCT-116 = tested on: HCT-116
LOX IMVI = tested on: LOX IMVI
SF-539 = tested on: SF-539
Hs-578T = tested on: Hs-578T
SK-OV-3 = tested on: SK-OV-3
786-0 = tested on: 786-0
OVCAR-5 = tested on: OVCAR-5
RXF 393 = tested on: RXF 393

CC1(C)/C(=N\O)C2(OS(=O)(=O)C(F)(F)F)CCC1C2 (centres undefined)
GI50 (SF-268): > 100 µM (inactive)
GI50 (OVCAR-8): > 100 µM (inactive)
GI50 (UACC-257): > 100 µM (inactive)
GI50 (NCI-H226): 70.8 µM (inactive)
GI50 (SNB-19): > 100 µM (inactive)
GI50 (BT-549): > 100 µM (inactive)
GI50 (HCC 2998): > 100 µM (inactive)
GI50 (SN12C): > 100 µM (inactive)
GI50 (HCT-15): > 100 µM
GI50 (EKVX): > 100 µM (inactive)
GI50 (OVCAR-4): > 100 µM (inactive)
GI50 (NCI-H23): > 100 µM (inactive)
GI50 (CAKI-1): > 100 µM (inactive)
GI50 (ACHN): > 100 µM (inactive)
GI50 (MDA-MB-435): 60.1 µM (inactive)
GI50 (SK-MEL-28): > 100 µM (inactive)
GI50 (U-251): > 100 µM (inactive)
GI50 (TK-10): > 100 µM (inactive)
GI50 (KM12): > 100 µM (inactive)
GI50 (UO-31): > 100 µM (inactive)
GI50 (MDA-N): > 100 µM (inactive)
GI50 (NCI/ADR-RES): > 100 µM (inactive)
GI50 (HOP-92): > 100 µM (inactive)
GI50 (UACC-62): > 100 µM (inactive)
GI50 (SR): 55.1 µM (inactive)
GI50 (SNB-75): > 100 µM (inactive)
GI50 (MOLT-4): > 100 µM (inactive)
GI50 (HL-60): 12 µM (inactive)
GI50 (A498): > 100 µM (inactive)
GI50 (CCRF-CEM): > 100 µM (inactive)
GI50 (NCI-H460): > 100 µM (inactive)
GI50 (MDA-MB-231): > 100 µM (inactive)
GI50 (RPMI-8226): 27.4 µM (inactive)

COc1cccc(NC(=O)CC(=O)Nc2cccc(OC)c2)c1
GI50 (SF-268): > 100 µM (inactive)
GI50 (OVCAR-8): > 100 µM (inactive)
GI50 (NCI-H522): > 100 µM (inactive)
GI50 (SK-MEL-5): > 100 µM (inactive)
GI50 (UACC-257): > 100 µM (inactive)
GI50 (NCI-H226): > 100 µM (inactive)
GI50 (SK-MEL-2): > 100 µM (inactive)
GI50 (SNB-19): > 100 µM (inactive)
GI50 (PC-3): > 100 µM (inactive)
GI50 (COLO 205): > 100 µM (inactive)
GI50 (IGROV-1): > 100 µM (inactive)
GI50 (BT-549): > 100 µM (inactive)
GI50 (Malme-3M): > 100 µM (inactive)
GI50 (HCC 2998): > 100 µM (inactive)
GI50 (SN12C): > 100 µM (inactive)
GI50 (HCT-15): > 100 µM
GI50 (EKVX): > 100 µM (inactive)
GI50 (OVCAR-4): > 100 µM (inactive)
GI50 (NCI-H23): > 100 µM (inactive)
GI50 (CAKI-1): > 100 µM (inactive)
GI50 (M14): > 100 µM (inactive)
GI50 (ACHN): > 100 µM (inactive)
GI50 (OVCAR-3): > 100 µM (inactive)
GI50 (DU-145): > 100 µM (inactive)
GI50 (K562): > 100 µM (inactive)
GI50 (HT-29): > 100 µM (inactive)
GI50 (MDA-MB-435): > 100 µM (inactive)
GI50 (SK-MEL-28): > 100 µM (inactive)
GI50 (HOP-62): > 100 µM (inactive)
GI50 (A549): > 100 µM (inactive)
GI50 (SF-295): > 100 µM (inactive)
GI50 (U-251): > 100 µM (inactive)
GI50 (TK-10): > 100 µM (inactive)
GI50 (SW-620): > 100 µM (inactive)
GI50 (MCF7): > 100 µM (inactive)
GI50 (KM12): > 100 µM (inactive)
GI50 (HCT-116): > 100 µM (inactive)
GI50 (LOX IMVI): > 100 µM (inactive)
GI50 (UO-31): > 100 µM (inactive)
GI50 (MDA-N): > 100 µM (inactive)
GI50 (NCI/ADR-RES): > 100 µM (inactive)
GI50 (HOP-92): > 100 µM (inactive)
GI50 (UACC-62): > 100 µM (inactive)
GI50 (SR): > 100 µM (inactive)
GI50 (SF-539): > 100 µM (inactive)
GI50 (Hs-578T): > 100 µM (inactive)
GI50 (MOLT-4): > 100 µM (inactive)
GI50 (HL-60): > 100 µM (inactive)
GI50 (A498): > 100 µM (inactive)
GI50 (CCRF-CEM): > 100 µM (inactive)
GI50 (SK-OV-3): > 100 µM (inactive)
GI50 (NCI-H460): > 100 µM (inactive)
GI50 (MDA-MB-231): > 100 µM (inactive)
GI50 (RPMI-8226): > 100 µM (inactive)
GI50 (786-0): > 100 µM (inactive)

COc1ccc(OC)c(/C=C2/C(=O)N/C(=N\C(C)=O)N2C)c1
GI50 (SF-268): > 100 µM (inactive)
GI50 (OVCAR-8): > 100 µM (inactive)
GI50 (NCI-H522): > 100 µM (inactive)
GI50 (SK-MEL-5): > 100 µM (inactive)
GI50 (UACC-257): > 100 µM (inactive)
GI50 (NCI-H226): > 100 µM (inactive)
GI50 (SK-MEL-2): > 100 µM (inactive)
GI50 (SNB-19): > 100 µM (inactive)
GI50 (PC-3): > 100 µM (inactive)
GI50 (COLO 205): > 100 µM (inactive)
GI50 (IGROV-1): > 100 µM (inactive)
GI50 (BT-549): > 100 µM (inactive)
GI50 (HCC 2998): > 100 µM (inactive)
GI50 (SN12C): > 100 µM (inactive)
GI50 (HCT-15): > 100 µM
GI50 (EKVX): > 100 µM (inactive)
GI50 (OVCAR-4): > 100 µM (inactive)
GI50 (NCI-H23): > 100 µM (inactive)
GI50 (CAKI-1): > 100 µM (inactive)
GI50 (M14): > 100 µM (inactive)
GI50 (ACHN): > 100 µM (inactive)
GI50 (OVCAR-3): > 100 µM (inactive)
GI50 (DU-145): > 100 µM (inactive)
GI50 (HT-29): > 100 µM (inactive)
GI50 (MDA-MB-435): > 100 µM (inactive)
GI50 (SK-MEL-28): > 100 µM (inactive)
GI50 (HOP-62): > 100 µM (inactive)
GI50 (A549): > 100 µM (inactive)
GI50 (SF-295): > 100 µM (inactive)
GI50 (U-251): > 100 µM (inactive)
GI50 (TK-10): > 100 µM (inactive)
GI50 (SW-620): > 100 µM (inactive)
GI50 (MCF7): > 100 µM (inactive)
GI50 (KM12): > 100 µM (inactive)
GI50 (HCT-116): > 100 µM (inactive)
GI50 (LOX IMVI): > 100 µM (inactive)
GI50 (UO-31): > 100 µM (inactive)
GI50 (MDA-N): > 100 µM (inactive)
GI50 (NCI/ADR-RES): > 100 µM (inactive)
GI50 (HOP-92): > 100 µM (inactive)
GI50 (UACC-62): > 100 µM (inactive)
GI50 (SF-539): > 100 µM (inactive)
GI50 (Hs-578T): > 100 µM (inactive)
GI50 (SNB-75): > 100 µM (inactive)
GI50 (OVCAR-5): > 100 µM (inactive)
GI50 (MOLT-4): > 100 µM (inactive)
GI50 (HL-60): 95.1 µM (inactive)
GI50 (CCRF-CEM): > 100 µM (inactive)
GI50 (RXF 393): > 100 µM (inactive)
GI50 (SK-OV-3): > 100 µM (inactive)
GI50 (NCI-H460): > 100 µM (inactive)
GI50 (MDA-MB-231): > 100 µM (inactive)
GI50 (786-0): > 100 µM (inactive)

Cn1c2nc3ccccc3c-2cc2ccccc21 [NEOCRYPTOLEPINE HYDROCHLORIDE]
GI50 (PC-3): 5.45 µM (inactive)
GI50 (COLO 205): 2.76 µM (inactive)
GI50 (IGROV-1): 4.6 µM (inactive)
GI50 (EKVX): 3.98 µM (inactive)
GI50 (OVCAR-3): 6.4 µM (inactive)
GI50 (DU-145): 12.8 µM (inactive)
GI50 (K562): 4.3 µM (inactive)
GI50 (HT-29): 4.69 µM (inactive)
GI50 (MDA-MB-435): 5.65 µM (inactive)
GI50 (SF-295): 6.34 µM (inactive)
GI50 (SW-620): 5.79 µM (inactive)
GI50 (MCF7): 3.21 µM (inactive)
GI50 (LOX IMVI): 5.07 µM (inactive)
GI50 (SR): 2.93 µM (inactive)
GI50 (SF-539): 5.74 µM (inactive)
GI50 (HL-60): 3.62 µM (inactive)
GI50 (CCRF-CEM): 4.4 µM (inactive)
GI50 (NCI-H460): 3.29 µM (inactive)
